What was measured:
[1] = tested on: snake venom phosphodiesterase (SVPD); conditions: 1 mg SVPD overnight at 37° C.; then 100 μM on DC2.4 cells; FIG. 8
DC2.4 cells = assay: IFN-β induction by CDNs in DC2.4 antigen presenting cells (L929-ISRE luciferase reporter readout); assay type: cell-based, mouse; conditions: for relative level of IFN-β induced: DC2.4 cells incubated with 5, 20 and 100 μM CDN for 30 minutes, culture fluids after 4 hours, RLU in L929-ISRE reporter cells, FIG. 7; for level of IFN-β expression compared to c-di-GMP or c-di-AMP: cyclic dinucleotides not incubated with SVPD, 100 μM, DC2.4 cells, FIG. 8
Experimental: To measure the level of induced IFN-β, cell culture fluids from each sample were collected after 4 hours, and 10 μL was added to 5×10^4 L929-ISRE luciferase reporter cells cultured in RPMI media+10% FBS.

[2] = tested on: OVA-specific CD4+ and CD8+ T cell responses; assay: OVA-specific CD4+ and CD8+ T cell responses in PBMC by IFN-γ ELISpot after vaccination with OVA/Addavax plus CDN; assay type: in vivo, C57BL/6 mice; conditions: once s.c., PBMC 10 days post vaccination, FIG. 9
Experimental: To test the enhanced in vivo immunogenicity of Rp, Rp dithio c-di-GMP relative to unmodified c-di-GMP molecules, OVA-specific CD4+ and CD8+ T cell responses were measured in PBMCs at 10 days post vaccination in conjunction with CDN treatment. Vaccines were prepared by combining 10 μg of OVA protein (EndoFit OVA, InVivogen) and Addavax (2% squalene final) with either 25 μg or 5 μg of cyclic dinucleotide, in a total volume of 100 μL. Groups of five female C57BL/6 mice (H-2b) were immunized once subcutaneously (s.c) in the base of the tail with the vaccine preparations, and the OVA-specific CD4+ and CD8+ T cell responses in the peripheral blood mononuclear cell (PBMC) compartment were determined by ELISpot analysis 10 days later. 1×10^5 PBMCs and 1×10^5 splenocyte feeder cells isolated from aged-matched naïve C57BL/6 mice were un-stimulated or stimulated with 1 μM of MHC class II peptide (OVA265-280 TEWTSSNVMEERKIKV) or MHC class I (OVA257-264 SIINFEKL) peptide overnight and IFN-γ spot forming cells were measured, as described previously.

[3] = tested on: SIV gag-specific CD8+ and CD4+ T cell responses; assay: SIV gag-specific CD8 and CD4 T cell responses by IFNγ ELISpot after vaccination with SIV gag protein plus CDN; assay type: in vivo, C57BL/6 mice; conditions: 1 ug CDN with 10 ug SIV gag protein in 2% squalene-in-water, s.c. twice 20 days apart, spleens six days after second vaccination; FIG. 10
Experimental: To further assess the immunogenicity of Rp, Rp dithio c-di-GMP relative to unmodified c-di-GMP molecules, SIV gag-specific CD8+ and CD4+ T cell responses were measured. Five C57BL/6 mice per group were immunized subcutaneously twice with either 1 ug Rp, Rp dithio c-di-GMP or saline control formulated in 2% squalene-in-water with 10 ug SIV gag protein. Vaccinations were separated by 20 days, and spleens were harvested six days after the second vaccination. Immune responses were measured to SIV gag-specific CD8 (AL11, SIV gag312-322, A) and CD4 (DD13, SIV gag300-312, B) T cell epitopes by IFNγ ELISpot assay. Plates were scanned and spot forming cells (SFC) per well were enumerated using an ImmunoSpot analyzer (CTL).

[4] = tested on: OVA257-specific CD8 T cell responses; assay: OVA-specific CD8 T cell memory and expansion in PBMC by intracellular cytokine staining after prime-boost vaccination; assay type: in vivo, C57BL/6 mice
Experimental: (§1) To establish the enhanced immunogenicity and accompanying protective immunity induced by Rp, Rp dithio c-di-GMP relative to unmodified c-di-GMP, OVA-specific CD8 T cell responses measured in PBMC and protective immunity assessed against lethal bacterial challenge. Vaccines were prepared by combining 10 μg of OVA protein (EndoFit OVA, InVivogen) and Addavax (2% squalene final) with 25 μg of cyclic dinucleotide, in a total volume of 100 μL. Groups of five female C57BL/6 mice (H-2^b) were immunized twice subcutaneously (s.c) in the base of the tail with the vaccine preparations. The interval between the prime and boost immunizations was 36 days. The magnitude of both the memory and expansion phases of the OVA257-specific CD8 T cell responses in PBMC were quantified by intracellular cytokine staining (ICS) analysis at both 27 days post-boost vaccination and at 3 days post challenge with a 2× lethal dose (LD)50 dose (1×10^5 colony forming units; CFU) of OVA-expressing wild-type Listeria monocytogenes (WT Lm-OVA). For ICS analysis, 1×10^5 PBMCs from test mice combined with 1×10^5 splenocyte feeder cells isolated from aged-matched naïve C57BL/6 mice were un-stimulated or stimulated with 1 μM of MHC class I peptide (OVA257-264 SIINFEKL) for 5 hrs. in the presence of Brefeldin A, and IFN-γ production was measured by flow cytometry on a BD FACSVerse.

[5] = tested on: OVA-expressing wild-type Listeria monocytogenes (WT Lm-OVA); assay: Protective immunity against lethal WT Lm-OVA challenge (spleen CFU); assay type: in vivo, C57BL/6 mice; conditions: i.v. 2×LD50 (1×10^5 CFU) WT Lm-OVA at 27 days post boost; spleens 3 days later; FIG. 11C
Experimental: as §1, with “FACSVerse. […]” for “FACSVerse.”

[6] = tested on: THP1-Blue human monocytes; assay: IFN-β induction in THP1-Blue human monocytes (IRF-inducible SEAP reporter); assay type: cell-based; conditions: FIG. 15
Experimental: To determine the relative potency of the prodrug form of c-di-GMP to activate the innate immune response, relative levels of IFN-β induced in a human monocyte cell line were assessed. […] Cell culture supernatants from each sample were collected after 4 hours. 10 μL of the cell culture supernatants was added to QUANTI-Blue reagent (Invivogen) and incubated for 15-30 minutes. Absorbance at 655 nm was measured using a Model 680 spectrophotometer (BioRad).

[7] = tested on: OVA-specific CD8+ T cell responses; assay: OVA-specific CD8 T cell responses in splenocytes by intracellular cytokine staining after vaccination with CDN prodrug; assay type: in vivo, C57BL/6 mice; conditions: 5 μg CDN prodrug with 10 μg OVA and Addavax, s.c. twice, splenocytes 7 days post second vaccination; FIG. 16
Experimental: To assess the ability of the mono-2′-O-myristoyl c-di-GMP (“mono-2′-O-myristoyl CDG”) derivative to induce in vivo immune responses, OVA-specific CD8 T cell responses were measured in splenocytes at 7 days post second vaccination in conjunction with CDN treatment. To test the ability of mono-2′-O-myristoyl c-di-GMP relative to stimulate an OVA-specific immune responses, vaccines were prepared by combining 10 μg of OVA protein (EndoFit OVA, Invivogen) and Addavax (2% squalene final) with either 0 (Control) or 5 μg of mono-2′-O-myristoyl c-di-GMP derivative (“mono-2′-O-myristoyl CDG”), in a total volume of 100 μL. Groups of five female C57BL/6 mice (H-2b) were immunized twice subcutaneously (s.c) in the base of the tail with the vaccine preparations, and the OVA-specific CD8+ T cell responses in the spleens were determined by intracellular cytokine staining 7 days later. 1×10^6 splenocytes were unstimulated or stimulated with 1 μM of MHC class I (OVA257-264 SIINFEKL; SL8) peptide overnight and IFN-γ production was measured by flow cytometer on a BD FACSVerse.

TRAMP-C2 tumor cells = assay: Anti-tumor efficacy of CDNs formulated with GVAX in a subcutaneous murine prostate cancer model; assay type: in vivo, C57BL/6 mice; conditions: by day 52 post tumor implantation; s.c. vaccination on days 4 and 11; FIG. 12
Experimental: The relative in vivo anti-tumor efficacy of the Rp, Rp dithio c-di-AMP and unmodified c-di-AMP derivatives were evaluated in a subcutaneous mouse model of prostate cancer. The derivative molecules were formulated with 1×10^6 irradiated whole TRAMP-C2 murine prostate tumor cells expressing GM-CSF (GVAX). Groups of 5 male C57BL/6 mice were implanted with 1×10^5 TRAMP-C2 tumor cells subcutaneous in the footpad. On days 4 and 11 post tumor implantation, mice were administered vaccinations subcutaneous in the flank of either GVAX alone, or GVAX formulated with RR-CDA or CDA, and compared to HBSS control. Tumor growth was monitored by calipers, and tumor volume was calculated.

Nc1nc2c(ncn2[C@@H]2O[C@@H]3COP(=O)(O)O[C@H]4[C@@H](O)[C@H](n5cnc6c(=O)[nH]c(N)nc65)O[C@@H]4COP(=O)(O)O[C@H]3[C@H]2O)c(=O)[nH]1 [c-di-GMP, reference compound]
level of IFN-β expression after incubation of the CDN with SVPD versus without SVPD [1]: significantly lower

Nc1ncnc2c1ncn2C1OC2COP(=O)(S)OC3C(COP(=O)(S)OC2C1O)OC(n1cnc2c(N)ncnc21)C3O (stereo not drawn) [Rp, Sp dithio c-di-AMP, dithio [Rp,Sp] c-di-AMP]
relative level of IFN-β induced (DC2.4 cells): lower than the level induced by both the Rp, Rp dithio c-di-GMP and the Rp, Rp dithio c-di-AMP diastereomers as well as the native c-di-GMP and c-di-AMP molecules

Nc1nc2c(ncn2[C@@H]2O[C@@H]3CO[P@@](O)(=S)O[C@H]4[C@@H](O)[C@H](n5cnc6c(=O)[nH]c(N)nc65)O[C@@H]4CO[P@](O)(=S)O[C@H]3[C@H]2O)c(=O)[nH]1 [Rp, Sp dithio c-di-GMP, dithio [Rp,Sp] c-di-GMP]
relative level of IFN-β induced (DC2.4 cells): lower than the level induced by both the Rp, Rp dithio c-di-GMP and the Rp, Rp dithio c-di-AMP diastereomers as well as the native c-di-GMP and c-di-AMP molecules

Nc1nc2c(ncn2[C@@H]2O[C@@H]3CO[P@@](=O)(S)O[C@H]4[C@@H](O)[C@H](n5cnc6c(=O)[nH]c(N)nc65)O[C@@H]4CO[P@@](=O)(S)O[C@H]3[C@H]2O)c(=O)[nH]1 [Rp, Rp dithio c-di-GMP, dithio [Rp,Rp] c-di-GMP]
relative level of IFN-β induced (DC2.4 cells): induced significantly higher levels of IFN-β than either the c-di-GMP or c-di-AMP unmodified cyclic dinucleotide molecules
level of IFN-β expression compared to c-di-GMP or c-di-AMP (DC2.4 cells): greater
magnitude of antigen-specific CD8+ T cell responses compared to 5 μg or 25 μg of unmodified c-di-GMP ([2]; 5 μg CDN): greater
CD4+ and CD8+ OVA-specific T cell responses compared to unmodified c-di-GMP ([2]; same amount of CDN adjuvant (25 μg or 5 μg)): of greater magnitude
SIV gag-specific CD8 and CD4 T cell responses compared to saline control [3]: significantly higher
OVA-specific CD8 T cell memory compared to unmodified c-di-GMP adjuvanted vaccines ([4]; 25 μg CDN, s.c. prime and boost 36 days apart, PBMC 27 days post-boost, FIG. 11A): higher magnitude of OVA-specific CD8 T cell memory
expansion of OVA-specific memory CD8 T cells following challenge, compared to unmodified c-di-GMP adjuvanted vaccines ([4]; 3 days post challenge with 2× LD50 WT Lm-OVA, FIG. 11A): expanded to a higher magnitude
magnitude of OVA-specific CD8 T cell memory ([4]; FACS plot, FIG. 11B, 25 μg CDN adjuvanted vaccine): ~30 % of the total CD8 T cell population in PBMC
protection against virulent pathogen challenge (spleen colonies) [5]: complete protection (below the limit of detection, LOD)
IFN-β induction compared to Rp, Sp dithio c-di-GMP and unmodified c-di-GMP ([6]; human monocyte cell line): superior induction
level of IFN-β expression after incubation of the CDN with SVPD versus without SVPD [1]: equivalent

CCCCCCCCCCCCCC(=O)OC1C2OP(=O)(O)OCC3OC(n4cnc5c(=O)[nH]c(N)nc54)C(O)C3OP(=O)(O)OCC2OC1n1cnc2c(=O)[nH]c(N)nc21 (stereo not drawn) [mono-2′-O-myristoyl c-di-GMP]
levels of IFN-β induced compared to unmodified c-di-GMP and background (HBSS) ([6]; 100 μM for 30 minutes, supernatants after 4 hours, absorbance at 655 nm): significantly higher levels of IFN-β
OVA-specific CD8 T cell immune responses compared to Control vaccines [7]: greater immune responses

Nc1ncnc2c1ncn2[C@@H]1O[C@@H]2COP(=O)(O)O[C@H]3[C@@H](O)[C@H](n4cnc5c(N)ncnc54)O[C@@H]3COP(=O)(O)O[C@H]2[C@H]1O [c-di-AMP, reference compound]
level of IFN-β expression after incubation of the CDN with SVPD versus without SVPD [1]: significantly lower

Nc1ncnc2c1ncn2C1OC2COP(=O)(S)OC3C(COP(=O)(S)OC2C1O)OC(n1cnc2c(N)ncnc21)C3O (stereo not drawn) [Rp, Rp dithio c-di-AMP, dithio [Rp,Rp] c-di-AMP]
relative level of IFN-β induced (DC2.4 cells): induced significantly higher levels of IFN-β than either the c-di-GMP or c-di-AMP unmodified cyclic dinucleotide molecules
level of IFN-β expression compared to c-di-GMP or c-di-AMP (DC2.4 cells): greater
anti-tumor efficacy compared to GVAX alone or GVAX formulated with unmodified c-di-AMP (TRAMP-C2 tumor cells): increased anti-tumor potency
level of IFN-β expression after incubation of the CDN with SVPD versus without SVPD [1]: equivalent
